From the NIST ThermoML archive (doi:10.1021/acs.jced.5b00606)

How the values were obtained:
[1] = for vapor or sublimation pressure: Liquid, Transpiration method
[2] = Molar enthalpy of transition or fusion; settings: Crystal; Drop ice or diphenyl ether calorimetry

c1cn2ccnc2cn1 [imidazo[1,2-a]pyrazine]
[1]
Settings | vapor or sublimation pressure [kPa]
369.6 K | 0.1641
373.8 K | 0.2038
379 K | 0.2643
383 K | 0.34
385.2 K | 0.373
388.2 K | 0.4381
390.2 K | 0.4952
393.4 K | 0.5831

Settings | Triple point temperature [K]
[1], Crystal, DTA | 359.2

Settings | Molar enthalpy of transition or fusion [kcal/mol]
[2] | 3.66
